Literature values in patent US20090318293A1, “AGRICULTURAL COMPOSITION” (PLANT IMPACT PLC, priority 2005, published 2009).

System: cotyledon growth, chlorophyll biosynthesis and cell elongation
Conditions: on cotyledon growth, chlorophyll biosynthesis and cell elongation in the systems studied

## Cn1c(=O)c2c(ncn2C)n(C)c1=O [caffeine, 3,7-Dihydro-1,3,7-trimethyl-1H-purine-2,6-dione]
  cytokinin-like effect: weak cytokinin-like effect
